Experimental data as given in patent US10473670B2 (University of Kentucky Research Foundation, priority 2016, dated 2019).

Columns and labels:
[1] = system: mTORC1 and ERK1/2 signaling; experiment: Western blot of p-S6K1 and p-ERK1/2 in BON cells; type: cell-based, human; details: AICAR 3 h
Experimental: (§1) FIGS. 16A-D show graphs and images illustrating Cross-talk of AMPK and mTORC1 signaling. A. Diagram of cross-talk of AMPK and mTORC1 signaling. B. Western blot analysis of BON cells treated with or without AICAR (left panel) or 1 mM AICAR and CC (10 μM) (right panel) for 3 h. C. NT EIA (upper panel) and western blotting (lower panel) on BON cells expressing control vector and myc-raptor S722A/S792A treated with AICAR (1 mM) for 3 h. D. NT EIA (upper panel) and western blotting (lower panel) on BON cells expressing control vector and NTC and TSC2 siRNA treated with AICAR (1 mM) for 3 h. *p<0.05 vs. control in vector, †p<0.05 vs. AICAR in vector (C); *p<0.05 vs. control in NTC siRNA, †p<0.05 vs. control in NTC siRNA, ‡ p<0.05 vs. AICAR in NTC siRNA (D). n=6. All data are mean+/−SD.
AMPK activation inhibits mTORC1 through raptor, a component of mTORC1, or TSC2, a negative regulator of mTORC1 signaling. […] Moreover, a stable BON overexpression cell line was generated with a mutant raptor vector in which both Ser722 and Ser792 (AMPK phosphorylation sites) are replaced by alanine. […] Together, these findings further indicate the interaction of AMPK, mTORC1 and ERK signaling in the regulation of NT secretion.

BON cells = experiment: NT secretion from BON cells (NT EIA); type: cell-based, human
Experimental: as §1, with “FIGS. 14A-C show graphs and images illustrating that FFA activates AMPK signaling and increases NT secretion. A. Plasma NT of male C57BL/6 mice (5-mo-old, n=5) 1 h after olive oil (OO) oral gavage. *p<0.05 vs. NC; n=5. B. NT EIA (upper panels) and western blotting (lower panels) on BON cells treated with or without OA for 1 h. C. NT EIA (upper panels) and western blotting (lower panels) on QGP-1 cells treated with or without OA for 1 h. *p<0.05 vs. control; n=6. All data are mean+/-SD. FIGS.” for “FIGS.”, “[…]/[…]” for “S722A/S792A”, “mean+/-SD. […]” for “mean+/−SD.”

FHs74Int cells = experiment: In vitro FA absorption (BODIPY FL C16) in FHs74Int cells; type: cell-based, human; details: AICAR 1 mM 3 h, BODIPY FL C16 15 min
Experimental: All data are mean+/−SD. Experiments in vitro were at least repeated three times.
For in vitro FA absorption or lipid accumulation studies, FHs74Int and RIE-1 cells were incubated with either bovine serum albumin (BSA) (Sigma-Aldrich) or BSA-conjugated BODIPY® FL C16 (4,4-Difluoro-5,7-Dimethyl-4-Bora-3a,4a-Diaza-s-Indacene-3-Hexadecanoic Acid) (Life Technologies) for 15 min. BSA-conjugated oleate sodium was also used to treat cells for 1 h; cells were then stained with BODIPY® 493/503 (4,4-Difluoro-1,3,5,7,8-Pentamethyl-4-Bora-3a,4a-Diaza-s-Indacene) (Life Technologies). Images were observed under an FV1000 Olympus confocal microscope with a ×60, 1.35-numerical aperture oil objective (Olympus, Tokyo, Japan). Images were analyzed with Olympus FV10-ASW2.1 software. To quantify green intensity, 3 images were taken at consistent conditions and 10 cells from each image were analyzed using the area tool. […] Cells were collected, lysed and triglyceride content was measured by Triglyceride Determination Kit (Sigma-Aldrich). All experiments were carried in serum-free medium and fatty acid-free BSA was used at 0.1%.

AMPK [2] = experiment: Western blot of p-AMPK in FHs 74 Int cells; type: cell-based, human; details: FHs 74 Int cells; AICAR 1 mM 2 h, oleate 0.1 mM 1 h
Experimental: G. Human small intestinal cells (FHs74Int) (left panel) and RIE-1 cells (right panel) were treated with the indicated concentrations of oleate for 1 h and lysates were analyzed by western blotting. […] All data are mean+/−SD. Experiments in vitro were at least repeated three times.

AMPK [3] = experiment: Western blot of p-AMPK in STC-1 cells; type: cell-based, mouse; details: agonists 1 μM, 90 min, or OA
From the text: (§2) FIGS. 15A-B show graphs and images illustrating that FFAR1 and FFAR4 agonists increase AMPK activity. A. NT IF (left panel), NT EIA (middle panel, *p<0.05 vs. control) and western blotting (right panel) of STC-1 cells. B. Real-time PCR. GAPDH was used as the internal control (BON cell expression was arbitrarily set at 1). All data are mean+/−SD.
(§3) FFAR1 (previously known as GPR40) and FFAR4 (previously known as GPR120) are medium- to long-chain FFA G-protein-coupled receptors that have been implicated in the regulation of energy homeostasis and hormone secretion.

STC-1 cells = experiment: NT release from STC-1 cells (NT EIA); type: cell-based, mouse; details: OA 0.25 mM, phorbol myristate acetate 100 nM
From the text: as §2, §3

AMPK [4] = experiment: Western blot of p-AMPK and p-ACC in QGP-1 cells; type: cell-based, human; details: OA 1 h
Experimental: (§4) FIGS. 14A-C show graphs and images illustrating that FFA activates AMPK signaling and increases NT secretion. A. Plasma NT of male C57BL/6 mice (5-mo-old, n=5) 1 h after olive oil (OO) oral gavage. *p<0.05 vs. NC; n=5. B. NT EIA (upper panels) and western blotting (lower panels) on BON cells treated with or without OA for 1 h. C. NT EIA (upper panels) and western blotting (lower panels) on QGP-1 cells treated with or without OA for 1 h. *p<0.05 vs. control; n=6. All data are mean+/−SD. Tissues and cells were lysed with lysis buffer (Cell Signaling Technology), and equal amounts of protein were resolved on 4-12% NuPAGE BisTris gels (Life Technologies) and electrophoretically transferred to polyvinylidene difluoride (PVDF) membranes; the membranes were incubated with primary antibodies overnight at 4° C. followed by secondary antibodies conjugated with horseradish peroxidase. Membranes were developed using chemiluminescence (ECL) Western Blotting System from GE Healthcare Life Science (Piscataway, N.J.) and Thermo Scientific (Waltham, Mass.).

QGP-1 cells = experiment: NT secretion from QGP-1 cells (NT EIA); type: cell-based, human; details: OA 1 h
Experimental: FIGS. 14A-C show graphs and images illustrating that FFA activates AMPK signaling and increases NT secretion. A. Plasma NT of male C57BL/6 mice (5-mo-old, n=5) 1 h after olive oil (OO) oral gavage. *p<0.05 vs. NC; n=5. B. NT EIA (upper panels) and western blotting (lower panels) on BON cells treated with or without OA for 1 h. C. NT EIA (upper panels) and western blotting (lower panels) on QGP-1 cells treated with or without OA for 1 h. *p<0.05 vs. control; n=6. All data are mean+/−SD. Fifty μl of media were used to measure NT levels using NT EIA Kit from Phoenix Pharmaceuticals (Burlingame, Calif.) as described previously^30-33.

AMPK [5] = experiment: Western blot of p-AMPK and p-ACC in BON cells; type: cell-based, human; details: OA 1 h
Experimental: as §4

NC(=O)c1ncn([C@@H]2O[C@H](CO)[C@@H](O)[C@H]2O)c1N [AICAR, 5-aminoimidazole-4-carboxamide-1-β-D-ribofuranoside]
expression of p-S6K1 [1]: decreased expression of p-S6K1
p-ERK1/2 [1]: increased p-ERK1/2
NT secretion (BON cells; AICAR 1 mM 3 h): stimulated NT secretion
FA absorption (FHs74Int cells): concomitantly decreased FA absorption
oleate-stimulated p-AMPK (AMPK [2]): further increased oleate-stimulated p-AMPK

CCCCCCCC/C=C\CCCCCCCC(=O)O [OA, oleic acid]
p-AMPK expression (AMPK [3]): increased p-AMPK expression
NT release (STC-1 cells): stimulated NT release
phosphorylation of AMPK (p-AMPK) (AMPK [4]): increased phosphorylation
phosphorylation of acetyl-CoA carboxylase (p-ACC) (AMPK [4]): increased phosphorylation
NT secretion (QGP-1 cells): stimulated NT secretion
NT secretion (BON cells; OA 1 h): stimulated NT secretion
phosphorylation of AMPK (p-AMPK) (AMPK [5]): increased phosphorylation
phosphorylation of acetyl-CoA carboxylase (p-ACC) (AMPK [5]): increased phosphorylation
